Holding throughout (type): in vivo, piglets
For series [1], the system named is colistin-resistant Enterobacteriaceae. Briefly: Piglet model: faecal counts of colistin-resistant Enterobacteriaceae. As to conditions: during follow-up (14 days). As for the experimental part:
(§1) The model was used according to the synopsis depicted in FIG. 1.
(§2) Colistin sulfate (Colivet), a non absorbable antibiotic, used in human decontamination, was given once per day orally in this experiment. Two regimens were tested: 7.5 mg/kg/d and 15 mg/kg/d, equivalent to human doses 500 mg/d and 1000 mg/d, respectively. The duration of the treatment was 3 days. The objective of such very high doses, given over a short period of time, was to obtain a rapid eradication of ESBL-producing Enterobacteriaceae without the emergence of strains resistant to colistin. • E. coli Nissle strain 1917 (EcN1917, Mutaflor). The dose was calculated to administrate the highest dose recommended in humans: 2 enteric-coated capsules of 2.5-25×10^9 viable bacteria, given orally, once daily during 6 days.
(§3) Fresh faecal samples were collected from each piglet, diluted ten-fold (w/v) in peptone broth containing 30% glycerol, and faecal suspension aliquots were stored at −80° C. until microbiological analysis.
(§4) Before analysis, frozen aliquots were thawed by standing approximately 1 hr at room temperature and faecal suspensions were serially diluted in saline before plating on appropriate agar plates.
Cefotaxime- and colistin-resistant Enterobacteriaceae were counted using Drigalski agar supplemented with 1.5 mg/L cefotaxime and 10 mg/L colistin base respectively. […]

Series [2] has as its system ESBL-producing Enterobacteriaceae. In words: Piglet model: faecal counts of cefotaxime-resistant (ESBL-producing) Enterobacteriaceae after colistin decontamination and E. coli Nissle 1917 repopulation. The protocol:
as §1
In summary, piglets were treated sequentially with: • cefdinir (4 mg/kg/d) during 2 days, in order to enhance the carriage of ESBL-producing bacteria, • colistin sulfate (destroy phase):
as §2, §3, §4
Total Enterobacteriaceae were counted using Drigalski agar (BioRad Laboratories, Marnes-La-Coquette, France) plates.
Cefotaxime- and colistin-resistant Enterobacteriaceae were counted using Drigalski agar supplemented with 1.5 mg/L cefotaxime and 10 mg/L colistin base respectively.
Bacterial counts which were below the detection threshold (2 log CFU/g of faeces) were considered to be equal to the 2 log CFU/g for statistical analysis.

Series [3] can be described thus: Microbiological assay of faecal concentrations of colistin. As to conditions: 15 mg/kg/d colistin sulfate. The protocol: Fecal concentrations of colistin were measured by a microbiological assay using agar medium 10 (Difco, Becton-Dickinson, Le Pont-de-Claix) and Bordetella bronchiseptica ATCC4617 as indicator strain. The limit of detection was 1.5 μg of colistin base per g of feces.
as §3

For the substance colistin sulfate, the “selection of strains resistant to colistin” value in series [1] is “no selection of strains resistant to colistin was observed”. Besides, the “efficacy to eradicate ESBL-producing enterobacteria (destroy phase)” value in series [2] (15 mg/kg/d compared with 7.5 mg/kg/d, orally once per day, 3 days) is recorded as “best efficacy”. The “decolonization of ESBL-producing enterobacteria” value in series [2] (colistin for three days followed by six days of E. coli strain Nissle 1917) was “rapid and efficacious decolonization”. Also, the “efficacy in the restore phase” value in series [2] (group which had received the high dose of colistin) is listed as “best efficacy”. In addition, in series [3], the “faecal concentrations relative to the MIC” value was “at least 10 fold”.
